Experimental data as given in ChEMBL document CHEMBL5584296, “Discovery of Novel Pyrimidine-Based Derivatives as Nav1.2 Inhibitors with Efficacy in Mouse Models of Epilepsy” (J Med Chem, 2024).

Assays:
[1] = target: T1, Sodium channel protein type 2 subunit alpha (Homo sapiens, UniProt Q99250); experiment: Inhibition of human Nav1.2 expressed in HEK293 cells assessed as test to control ratio at 10 uM measured after 5 mins by whole cell voltage clamp electrophysiological analysis; assay type: cell-based
Target sequence in this assay (Q99250 whole entry, looked up): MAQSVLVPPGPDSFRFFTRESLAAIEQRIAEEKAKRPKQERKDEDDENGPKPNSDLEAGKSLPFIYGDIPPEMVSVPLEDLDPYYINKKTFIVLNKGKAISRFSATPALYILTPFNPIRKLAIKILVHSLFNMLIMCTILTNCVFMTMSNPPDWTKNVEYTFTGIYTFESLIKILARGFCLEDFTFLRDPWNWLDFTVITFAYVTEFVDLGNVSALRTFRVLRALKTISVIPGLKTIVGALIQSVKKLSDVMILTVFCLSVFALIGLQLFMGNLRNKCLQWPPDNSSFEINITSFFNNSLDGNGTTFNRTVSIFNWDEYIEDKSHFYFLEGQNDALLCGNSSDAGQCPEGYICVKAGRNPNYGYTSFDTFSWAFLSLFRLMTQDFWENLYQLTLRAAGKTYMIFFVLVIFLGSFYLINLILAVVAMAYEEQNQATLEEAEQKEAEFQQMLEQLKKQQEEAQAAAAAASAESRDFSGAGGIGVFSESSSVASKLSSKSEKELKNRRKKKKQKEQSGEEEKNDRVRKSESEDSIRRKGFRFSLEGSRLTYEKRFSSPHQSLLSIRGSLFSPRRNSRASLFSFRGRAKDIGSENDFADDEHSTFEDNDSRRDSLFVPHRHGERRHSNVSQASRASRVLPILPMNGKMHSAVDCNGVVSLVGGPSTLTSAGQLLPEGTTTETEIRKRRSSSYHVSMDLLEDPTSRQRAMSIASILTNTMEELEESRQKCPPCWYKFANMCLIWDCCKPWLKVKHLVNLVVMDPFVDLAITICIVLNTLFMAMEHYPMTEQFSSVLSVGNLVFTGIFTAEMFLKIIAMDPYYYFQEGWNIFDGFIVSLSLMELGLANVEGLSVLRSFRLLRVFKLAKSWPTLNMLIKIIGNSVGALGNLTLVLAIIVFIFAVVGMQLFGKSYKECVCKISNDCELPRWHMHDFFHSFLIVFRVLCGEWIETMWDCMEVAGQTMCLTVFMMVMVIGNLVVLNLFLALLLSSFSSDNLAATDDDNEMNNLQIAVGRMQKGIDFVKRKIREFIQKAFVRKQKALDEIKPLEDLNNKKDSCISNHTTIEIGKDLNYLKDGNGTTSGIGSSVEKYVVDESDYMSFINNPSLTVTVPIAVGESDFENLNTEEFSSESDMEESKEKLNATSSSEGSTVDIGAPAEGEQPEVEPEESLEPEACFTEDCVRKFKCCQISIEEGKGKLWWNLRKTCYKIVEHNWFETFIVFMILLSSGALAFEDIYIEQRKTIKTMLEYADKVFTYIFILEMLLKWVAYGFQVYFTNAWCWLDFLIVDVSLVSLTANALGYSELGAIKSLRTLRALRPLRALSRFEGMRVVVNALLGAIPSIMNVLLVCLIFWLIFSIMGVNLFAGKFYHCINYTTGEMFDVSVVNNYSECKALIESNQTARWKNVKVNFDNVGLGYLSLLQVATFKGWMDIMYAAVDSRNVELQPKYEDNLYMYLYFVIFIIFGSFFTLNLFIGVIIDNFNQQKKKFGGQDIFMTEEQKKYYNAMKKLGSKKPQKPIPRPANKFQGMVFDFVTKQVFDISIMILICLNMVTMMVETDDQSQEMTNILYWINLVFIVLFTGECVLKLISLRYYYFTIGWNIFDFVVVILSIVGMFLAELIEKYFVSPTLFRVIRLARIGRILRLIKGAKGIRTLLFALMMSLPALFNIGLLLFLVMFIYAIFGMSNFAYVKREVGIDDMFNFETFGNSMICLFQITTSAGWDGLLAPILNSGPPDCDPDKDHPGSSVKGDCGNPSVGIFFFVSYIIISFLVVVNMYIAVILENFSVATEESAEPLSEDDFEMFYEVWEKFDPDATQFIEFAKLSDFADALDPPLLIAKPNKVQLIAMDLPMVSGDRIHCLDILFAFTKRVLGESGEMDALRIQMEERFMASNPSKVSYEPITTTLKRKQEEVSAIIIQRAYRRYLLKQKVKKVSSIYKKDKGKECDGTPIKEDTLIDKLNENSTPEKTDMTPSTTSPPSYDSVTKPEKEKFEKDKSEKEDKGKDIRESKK

[2] = target: T1, Sodium channel protein type 2 subunit alpha; experiment: Inhibition of human Nav1.2 expressed in HEK293 cells assessed as test to control ratio at 1 uM measured after 5 mins by whole cell voltage clamp electrophysiological analysis; assay type: cell-based
Target sequence in this assay (Q99250 whole entry, looked up): as above

[3] = target: T1, Sodium channel protein type 2 subunit alpha; experiment: Inhibition of human Nav1.2 expressed in HEK293 cells assessed as test to control ratio at 0.1 uM measured after 5 mins by whole cell voltage clamp electrophysiological analysis; assay type: cell-based
Target sequence in this assay (Q99250 whole entry, looked up): as above

[4] = target: T1, Sodium channel protein type 2 subunit alpha; experiment: Inhibition of human Nav1.2 expressed in HEK293 cells at 10 uM measured after 5 mins by whole cell voltage clamp electrophysiological analysis relative to control; assay type: cell-based
Target sequence in this assay (Q99250 whole entry, looked up): as above

[5] = target: T1, Sodium channel protein type 2 subunit alpha; experiment: Inhibition of Nav1.2 (unknown origin) at 100 uM relative to control
Target sequence in this assay (Q99250 whole entry, looked up): as above

[6] = target: T1, Sodium channel protein type 2 subunit alpha; experiment: Inhibition of Nav1.2 (unknown origin)
Target sequence in this assay (Q99250 whole entry): as the sequence (Q99250 whole entry, looked up) above

[7] = test system: Mus musculus; experiment: Antiepileptic activity in MES-induced seizure male ICR mouse model assessed as protection against tonic hind limb extension at 300 mg/kg, ip measured after 30 mins relative to control; assay type: functional; conditions: 0.5 h
[8] = test system: Mus musculus; experiment: Antiepileptic activity in 6 Hz(32 mA)-induced seizure male C57BL mouse model assessed as protection against seizure at 200 mg/kg, ip administered for 30 mins by epilepsy test; assay type: functional; conditions: 0.5 h

SMILES	T/C [1]	T/C [2]	T/C [3]	also measured
Cc1cccc(-c2cc(N3CCCc4ccccc4C3)nc(N)n2)c1	0.03	0.24	0.85	–
COc1cccc(-c2cc(N3CCCc4ccccc4C3)nc(NS(=O)(=O)c3ccc(Cl)cc3)n2)c1	0.65	–	–	–
COc1cccc(-c2cc(N3CC4CC(C3)c3ccccc34)nc(NS(=O)(=O)c3cccc(C)c3)n2)c1	0.33	0.68	–	–
COc1cccc(-c2cc(NCCc3ccc(OC)c(OC)c3)nc(N)n2)c1	0.15	0.35	0.61	–
CC(C)Oc1ccc(-c2cc(N3CCCc4ccccc4C3)nc(N)n2)cc1	0.37	0.87	–	–
COc1cccc(-c2cc(N3CCCc4c(cc(OC)cc4OC)C3)nc(N)n2)c1	0.14	0.53	–	–
CCCc1ccc(S(=O)(=O)Nc2nc(-c3cccc(OC)c3)cc(N3CCCc4ccccc4C3)n2)cc1	0.08	0.12	0.86	inhibition [4]: 92%
Nc1nc(-c2ccc(Oc3ccccc3)cc2)cc(N2CCCc3ccccc3C2)n1	0.46	0.79	–	–
Nc1nc(-c2ccc(F)cc2)cc(N2CCCc3ccccc3C2)n1	0.18	0.46	0.9	–
COc1cccc(-c2cc(N3CCCc4ccc(C)cc4C3)nc(OC)n2)c1	0.11	0.43	0.88	–
COc1cccc(-c2cc(N3CCCc4ccc(OCc5ccccc5)cc4C3)nc(N)n2)c1	0.02	0.11	0.77	–
COc1cccc(-c2cc(N3CCCc4cc(F)c(F)cc4C3)nc(N)n2)c1	0.43	0.65	–	–
Nc1nc(-c2cccc(OC(F)(F)F)c2)cc(N2CCCc3ccccc3C2)n1	0.07	0.81	–	–
COc1cccc(-c2cc(N3CCCc4ccc(F)cc4C3)nc(N)n2)c1	0	0.03	0.84	–
COc1cccc(-c2cc(N3CCc4cc(OC)c(OC)cc4C3)nc(N)n2)c1	0.01	0.35	0.67	inhibition [4]: 99%
COc1cccc(-c2cc(N3CCCc4ccc(C)cc4C3)nc(-c3ccccc3)n2)c1	0.91	–	–	–
O=C(CC(c1ccccc1)c1ccccc1)N1CCN(CCO)CC1	–	–	–	inhibition [5]: 59.1%
Nc1cnc(-c2cc(Cl)cc(Cl)c2Cl)c(N)n1 [ELPETRIGINE]	–	–	–	IC50 [6]: 6 µM
COc1cccc(-c2cc(N3CCc4nc(Cl)ccc4C3)nc(N)n2)c1	0.18	0.71	0.89	–
COc1cccc(-c2cc(N3CCC(C)c4ccccc4C3)nc(N)n2)c1 (stereo not drawn)	0.11	0.12	0.95	–
Cc1cccc(C)c1OCCCNCc1cc(C(C)(C)C)c(O)c(C(C)(C)C)c1	–	–	–	IC50 [6]: 0.18 µM
COc1cccc(-c2cc(NCCc3ccc4c(c3)OCO4)nc(N)n2)c1	0.05	0.34	0.86	–

SMILES	T/C [1]	T/C [2]	T/C [3]	also measured
COc1cccc(-c2cc(N3CCCc4cc(F)ccc4C3)nc(N)n2)c1	0.04	0.03	0.39	–
CCCC(CCC)C(=O)O [VALPROIC ACID]	–	–	–	Activity [7]: 100%; Activity [8]: 100%
Nc1nc(-c2cccn2C2CCCCO2)cc(N2CCCc3ccccc3C2)n1 (stereo not drawn)	0.19	0.77	–	–
Nc1nc(-c2ccc3c(c2)OCCC3)cc(N2CCCc3ccccc3C2)n1	0.07	0.72	–	–
COc1cccc(-c2cc(N3CCCc4ccccc4C3)nc(NS(=O)(=O)c3ccc(F)cc3)n2)c1	0.36	0.95	0.95	–
COc1cccc(-c2cc(N3CCCc4ccc(C)cc4C3)nc(S(C)(=O)=O)n2)c1	0.81	–	–	–
COc1cccc(-c2cc(NCc3ccc(OC)c(OC)c3)nc(N)n2)c1	0.24	0.4	0.7	inhibition [4]: 76%
COc1cccc(-c2cc(N3CCCc4ccc(C)cc4C3)nc(SC)n2)c1	0.66	–	–	–
CN1C[C@H](CNC(=O)OCc2ccccc2)C[C@@H]2c3cccc4c3c(cn4C)C[C@H]21	0.01	–	–	–
Nc1nc(-c2ccc(OC3CCCCO3)cc2)cc(N2CCCc3ccccc3C2)n1 (stereo not drawn)	0.14	0.76	–	–
COc1cccc(-c2nc(N)nc(N3CCCc4ccc(C)cc4C3)c2F)c1	0.01	0.19	0.88	–
COc1cccc(-c2cc(N3CCc4ccccc4C3)nc(N)n2)c1	0.13	0.35	0.68	–
COc1cccc(-c2cc(N3CCC4(CCOCC4)C3)nc(N)n2)c1	0.57	0.94	0.97	–
COc1cccc(-c2cc(N3CCCc4ccc(C)cc4C3)ncn2)c1	0.13	0.43	0.8	–
COc1cccc(-c2cc(N3CC4CC(C3)c3ccccc34)nc(NS(=O)(=O)c3ccc(C)cc3)n2)c1	0.31	0.71	–	–
COc1cccc(-c2cc(N3Cc4ccccc4C3)nc(N)n2)c1	0.75	–	–	–
COc1cccc(-c2cc(N3CCCc4ccc(C)cc4C3)nc(C#N)n2)c1	0.86	–	–	–
Nc1nc(-c2cccc3ccccc23)cc(N2CCCc3ccccc3C2)n1	0.08	0.85	–	–
COc1cccc(-c2cc(N3CCc4nc(C)sc4C3)nc(N)n2)c1	0.79	–	–	–
Nc1nc(-c2ccc3c(c2)CCO3)cc(N2CCCc3ccccc3C2)n1	0.07	0.82	–	–
COc1cccc(-c2cc(N3CC4CC(C3)c3ccccc34)nc(NS(=O)(=O)c3ccc(C)cc3C)n2)c1	0.45	0.84	–	–
COc1cccc(-c2cc(N3CC4CC(C3)c3ccccc34)nc(NS(=O)(=O)c3ccc(F)cc3)n2)c1	0.28	0.56	–	–
